From ChEMBL document CHEMBL5370563, “Molecular Networking-Guided Isolation of Cyclopentapeptides from the Hydrothermal Vent Sediment Derived Fungus Aspergillus pseudoviridinutans TW58-5 and Their Anti-inflammatory Effects” (J Nat Prod, 2023)
The source made the active and inactive calls. The rule behind the calls is not given here.

How the values were obtained:
RAW264.7 [1] = assay: Antiinflammatory activity in LPS-induced mouse RAW264.7 cells assessed as inhibition of NO production at 20 uM measured after 24 hrs by Griess reagent based assay; format: functional, cell-based
RAW264.7 [2] = assay: Cytotoxicity against LPS-induced mouse RAW264.7 cells assessed as reduction in cell viability at 20 uM incubated for 24 hrs by MTT assay; format: toxicity, cell-based; conditions: raw264.7, 24 h
RAW264.7 [3] = assay: Antiinflammatory activity in LPS-induced mouse RAW264.7 cells assessed as inhibition of NO production measured after 24 hrs by Griess reagent based analysis; format: functional, cell-based; conditions: dose 0.1-20 µM
RAW264.7 [4] = assay: Antiinflammatory activity in LPS-induced mouse RAW264.7 cells assessed as reduction in iNOS protein expression at 20 uM measured after 24 hrs by Western blot analysis; format: functional, cell-based
RAW264.7 [5] = assay: Antiinflammatory activity in LPS-induced mouse RAW264.7 cells assessed as inhibition of NLRP3 protein expression at 20 uM measured after 24 hrs by Western blot analysis; format: functional, cell-based

Row | Compound | Activity (RAW264.7 [1]) | Activity (RAW264.7 [2]) | Activity (RAW264.7 [3]) | Activity (RAW264.7 [4]) | Activity (RAW264.7 [5])
1 | COc1ccc([C@@H](C)[C@@H]2NC(=O)[C@@H](CC(C)C)NC(=O)CNC(=O)[C@@H](Cc3ccccc3)NC(=O)c3cccc(O)c3NC2=O)cc1 | Active | Non-Toxic | Dose-Dependent Effect | Active | Active
2 | CC[C@H](C)[C@H]1NC(=O)CNC(=O)[C@H](CCC(C)C)NC(=O)c2cccc(O)c2NC(=O)[C@H]([C@H](C)c2ccc(OC)cc2)NC1=O | Active | Non-Toxic | – | – | –
3 | COc1ccc([C@@H](C)[C@@H]2NC(=O)[C@@H](C(C)C)NC(=O)CNC(=O)[C@H](CCC(C)C)NC(=O)c3cccc(O)c3NC2=O)cc1 | Active | Non-Toxic | – | – | –
4 | CC[C@@H](C)[C@H]1NC(=O)CNC(=O)[C@H](CC(C)C)NC(=O)c2cccc(O)c2NC(=O)[C@H]([C@H](C)c2ccc(OC)cc2)NC1=O | Active | Non-Toxic | – | – | –
5 | COc1ccc([C@@H](C)[C@@H]2NC(=O)[C@@H](C(C)C)NC(=O)CNC(=O)[C@H](Cc3ccccc3)NC(=O)c3cccc(O)c3NC2=O)cc1 | Active | Non-Toxic | – | – | –
6 | COc1ccc([C@@H](C)[C@@H]2NC(=O)[C@@H](CC(C)C)NC(=O)CNC(=O)[C@H](CCC(C)C)NC(=O)c3cccc(O)c3NC2=O)cc1 | Active | Non-Toxic | – | – | –
7 | CC[C@H](C)[C@H]1NC(=O)CNC(=O)[C@H](Cc2ccccc2)NC(=O)c2cccc(O)c2NC(=O)[C@H]([C@H](C)c2ccc(OC)cc2)NC1=O | Active | Non-Toxic | – | – | –
